In series [1] the test system is AHR target genes CYP1A1, CYP1B1, ALDH3A1. The settings on record: human, 16 h, 1 µM.
Series [2] is described as follows: Thermodynamic solubility, shake-flask method. The format is physicochemical. The settings on record: HEPES buffer 0.1 M pH 7.4, 21 °C. As for the experimental part:
Thermodynamic solubility was determined using the classical shake-flask method. The solid compound (4 mg) was suspended in 1 mL HEPES buffer (0.1 M, pH 7.4) and constantly stirred at 21 °C for 24 h. […] The injection volume for all analyses was 50 μL and the flow rate was kept at 1 mL/min during the analysis. A mobile phase gradient method was applied as a method with 5% solvent B to 99% solvent B in 5 min, followed by 3 min of elution at 99% solvent B.
Calibration curve was generated from a serial dilution of the respective analyte in DMSO at 2.5, 1.25, 0.625, 0.313, 0.156, 0.078, 0.039 mM starting from a 10 mM DMSO stock solution. Subsequently, 2 μL of each dilution was added to 198 μL of a buffer (HEPES, 0.1 M, pH 7.4)/acetonitrile mixture in a 3:2 ratio yielding final dilutions of 25, 12.5, 6.25, 3.125, 1.562, 0.781, 0.391 μM. These were then subjected to HPLC analysis as described above.
Using the results from the linear regression of the internal calibration measurement points (Figure S5) and the mean AUC values from the saturated aqueous solutions, the concentration C of the analytes in the saturated aqueous solution, expressed in μM, were calculated using Equation 2:(Equation 1) AUC=Slope·C+YIntercept (Equation 2) C=AUC−YIntercept/Slope

Series [3] is described as follows: Parallel artificial membrane permeability assay (PAMPA). The conditions noted are these: for Conc. acceptor well / Conc. donor well: PAMPA after incubation. As for the experimental part: The plates were stored at – 20 °C until ready for use. Prior to use, the plate was prewarmed at room temperature for 30 min. Donor- and acceptor solutions were prepared as 12 mM phosphate buffered saline with a pH of 6.5 (donor) respectively 7.4 (acceptor). […] Then, 300 μL of each donor solution were filled into the donor (bottom) wells of the PAMPA plate. 200 μL of the acceptor medium were loaded into each well of the pre-coated receiver plate (top). […] The compound concentrations in the donor- and acceptor wells were then determined using a Jasco 2 HPLC system equipped with a ReproSil-Pur 120 ODS-3 column (5 μm, 50 × 2 mm) and UV detection. […] The injection volume was 40 μL and the flow rate 1 mL/min. […] For X15695, two calibration curves were prepared in the presence (donor well) and absence (acceptor well) of 10% ethanol. (Figure S6). The experiments were performed in triplicates.
Where cA(t) is the compound concentration in the acceptor well in μmol⋅l^−1, cD(t) is the compound concentration in the donor well in […], VA and VD is the volume of the acceptor respectively donor solution per well in mL, A is the membrane area in cm^2 and t the incubation time in seconds (Table S3).

≈ marks a conversion by molar mass, not a printed value.

The source of these data is PMC13197777, “Distinct 2-phenylimidazo[1,2-a]pyridine derivatives that inhibit breast cancer cell proliferation identified as AHR ligands” (iScience, 2026).

With `Fc1ccc(-c2cn3cc(C(F)(F)F)cc(Cl)c3n2)cc1` [X15695], in series [1], the “expression of AHR target genes (RT-PCR)” value is “enhanced the transcriptional activity of the AHR target genes in both MCF-7 and T47D cells”. The thermodynamic solubility (as a rule, solubility found after equilibrating the solid with the medium) at 24 h is 3 µM (≈ 0.944 µg/mL) in series [2] and 2.99 µM (≈ 0.941 µg/mL) in series [2] (HEPES buffer, 21 °C, pH 7.4, aqueous buffer, thermodynamic from solid). In series [3] (PAMPA), the Papp (commonly a coefficient for how fast a substance crosses the barrier) at 5 h, 200 µM turned out to be 8.68 ×10⁻⁶ cm/s. Besides, the Conc. acceptor well in series [3] (replica 1) was determined as 55.19 µM; in series [3] (replica 2) it was 55.84 µM; in series [3] (replica 3) it was 25.23 µM. In addition, the results for the Conc. donor well in series [3] (replica 1), in series [3] (replica 2) and in series [3] (replica 3) were 214.69 µM, 190.41 µM and 225.99 µM, respectively.
